Assay [1] deals with Mecp2 female mice (HET). The experiment in a line: Acoustic startle response in RETT mouse model. It is filed as in vivo. Particulars: HET mice at 8 weeks of age; all doses tested (1.35 or 13.5 mg/kg ip QD + 0.675 mg/ml in drinking water); FIG. 2. As to the method:
(§1) Experiments employed wild type (WT) mice and Mecp2 female mice (HET) that were provided by The Jackson Laboratory, Bar Harbor, ME.
(§2) Breeding of the experimental mice were done at The Jackson Laboratories and were shipped at approximately 5 weeks of age. Dosing experiments were conducted at approximately 6 weeks of age.
(§3) Treatment Groups (N=20) were as follow: • WT—Vehicle • HET—Vehicle • HET—RIV-0561 (1.35 mg/kg; ip QD)+0.675 mg/ml of RIV-0561 in drinking water • HET—RIV-0561 (13.5 mg/kg; ip QD)+0.675 mg/ml of RIV-0561 in drinking water
(§4) NeuroCube® and Startle experiments were conducted when mice were at 8 and 12 weeks of age. All tests were conducted within 2 hours post IP dosing.
The acoustic startle measures an unconditioned reflex response to external auditory stimulation. Mice were placed in the startle enclosures and secured in the sound-attenuated startle chamber (Med Associates Inc., St Albans, VT) on top of a force transducer plate that measures the force of the movements made by the mouse for a 5 min habituation period of white noise (70 dB). Subsequent test sessions consisted of 10 blocks of eleven trials each. Within each block, stimuli of 70, 75, 80, 85, 90, 95, 100, 105, 110, 115, and 120 dB were presented in a random order with a variable inter-trial interval of mean 15 sec (10-20 sec). […] Responses were recorded for 150 ms from startle onset and were sampled every ms. […]

Assay [2] deals with Mecp2 female mice (HET). As to the kind of experiment: NeuroCube gait analysis in RETT mouse model. Type of assay: in vivo. As for the experimental part:
as §1, §2, §3, §4
NeuroCube® system is a proprietary gait analysis system. The platform employs computer vision to detect changes in gait geometry and gait dynamics in rodent models of neurological disorders, pain, and neuropathies. This platform is unique for gait testing for the following reasons: (1) it is completely automated and thus removes any bias or subjectivity; (2) the system captures both gait geometry and gait dynamics (stance, swing, propulsion, etc.); and (3) the sensitivity of the computer vision and bioinformatics allow the capture of symptoms of the disease model earlier and more accurately.
Mice are placed in the NeuroCube® for a 5-min test. The most dominant features that define the disease phenotype (symptom descriptors) are identified and ranked. Complex bioinformatics algorithms are employed to calculate the discrimination probability between WT and HET mice and can thus detect a test compound's ability to reverse the disease phenotype.

Setting [3] is: Gait features at 12 weeks, HET mice, dose not given.

Molecules are shown by their SMILES. Where a name gives a salt, the structure may show the parent alone.

For `Cc1ncsc1CCO[N+](=O)[O-]` [RIV-5061, 2-(4-methylthiazol-5-yl)ethyl nitrate maleate], in assay [1], the Startle response result is on record as “tendency to improve startle response”. Further, in assay [2] (setting [3]), the “% Recovery, Body Motion” value was 19%; the “% Recovery, Gait Dynamic and Geometry” value came to 53%; the “% Recovery, Overall Gait” value is on record as 24%; the “% Recovery, Paw Features” value worked out at 63%. Moreover, in assay [2] (setting [3]), the “% Recovery, Paw Positioning” value was found to be 17% and the “% Recovery, Rhythmicity” value amounted to 0%. The “Improvement of important gait features (up to)” value in assay [2] (RETT mice, after 12 weeks of treatment, particularly at the lower dose (1.35 mg/kg IP daily + 0.675 mg/ml in drinking water)) was greater than 60%.
